This is an account of results in patent US9580433B2 (Janssen Pharmaceutica NV, priority 2013, dated 2017).

One assay concerns the target T1, BACE1 (Homo sapiens, UniProt P56817).
T1 construct: recombinant BACE1 protein in a final concentration of 0.04 g/ml
The assay is described as follows: BACE1 biochemical FRET based assay.

The test system of assay [1] is Abeta 1-42 produced and secreted by SKNBE2 cells (BACE1). The assay is described as follows: BACE1 cellular αLisa assay in SKNBE2 cells, Abeta 1-42. In kind it is cell-based, human. Conditions: SKNBE2 cells expressing hAPP695, 18 hours incubation; for IC50: Homo sapiens, SKNBE2, 18 h, read-out: Cellular αLisa assay in SKNBE2 cells Abeta 42 pIC50 (converted). Here is the method:
(§1) BACE1 Cellular αLisa Assay in SKNBE2 Cells
(§2) In two αLisa assays the levels of Abeta total and Abeta 1-42 produced and secreted into the medium of human neuroblastoma SKNBE2 cells are quantified. The assay is based on the human neuroblastoma SKNBE2 expressing the wild type Amyloid Precursor Protein (hAPP695). The compounds are diluted and added to these cells, incubated for 18 hours and then measurements of Abeta 1-42 and Abeta total are taken. Abeta total and Abeta 1-42 are measured by sandwich αLisa. αLisa is a sandwich assay using biotinylated antibody AbN/25 attached to streptavidin coated beads and antibody Ab4G8 or cAb42/26 conjugated acceptor beads for the detection of Abeta total and Abeta 1-42 respectively. In the presence of Abeta total or Abeta 1-42, the beads come into close proximity. The excitation of the donor beads provokes the release of singlet oxygen molecules that trigger a cascade of energy transfer in the acceptor beads, resulting in light emission. Light emission is measured after 1 hour incubation (excitation at […] and emission at 615 nm).
(§3) A best-fit curve is fitted by a minimum sum of squares method to the plot of % Controlmin versus compound concentration.

In assay [2] the test system is Abeta total produced and secreted by SKNBE2 cells (BACE1). Nature of the assay: BACE1 cellular αLisa assay in SKNBE2 cells, Abeta total. The format is cell-based, human. Particulars: SKNBE2 cells expressing hAPP695, 18 hours incubation; for IC50: Homo sapiens, SKNBE2, 18 h, read-out: Cellular αLisa assay in SKNBE2 cells Abetatotal pIC50 (converted). As for the experimental part: as §1, §2, §3

For a further assay, the target named is T2, BACE2 (Homo sapiens, UniProt Q9Y5Z0).
T2 construct: recombinant BACE2 protein in a final concentration of 0.4 μg/ml
T2 sequence (Q9Y5Z0 63-518): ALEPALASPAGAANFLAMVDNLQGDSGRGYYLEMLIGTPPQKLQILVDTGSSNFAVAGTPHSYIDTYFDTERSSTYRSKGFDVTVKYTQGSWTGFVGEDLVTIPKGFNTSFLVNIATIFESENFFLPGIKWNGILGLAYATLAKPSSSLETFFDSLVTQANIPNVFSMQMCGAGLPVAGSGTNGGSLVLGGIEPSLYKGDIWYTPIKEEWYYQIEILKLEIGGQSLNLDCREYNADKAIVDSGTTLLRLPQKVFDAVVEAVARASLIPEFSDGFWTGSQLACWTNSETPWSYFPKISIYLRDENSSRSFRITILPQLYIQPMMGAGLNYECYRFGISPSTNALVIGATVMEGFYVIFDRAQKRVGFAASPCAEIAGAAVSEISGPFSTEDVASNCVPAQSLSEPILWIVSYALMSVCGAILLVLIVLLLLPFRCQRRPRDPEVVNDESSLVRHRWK
Nature of the assay: BACE2 biochemical FRET based assay. Particulars: recombinant BACE2, 450 min, pH 5.0; read-out: BACE2 Biochemical FRET based assay pIC50 (converted).

Setting [3] is: recombinant BACE1, 450 min, pH 5.0, read-out: BACE1 Biochemical FRET based assay pIC50 (converted).
Setting [4] is: Table 10, comparison with WO2012/085038 compounds, read-out: IC50 (nM), BACE1 biochemical FRET based assay.

The structures appear in SMILES notation. Where two headings read alike, the source gives them in different places.

T1 sequence (P56817 46-501): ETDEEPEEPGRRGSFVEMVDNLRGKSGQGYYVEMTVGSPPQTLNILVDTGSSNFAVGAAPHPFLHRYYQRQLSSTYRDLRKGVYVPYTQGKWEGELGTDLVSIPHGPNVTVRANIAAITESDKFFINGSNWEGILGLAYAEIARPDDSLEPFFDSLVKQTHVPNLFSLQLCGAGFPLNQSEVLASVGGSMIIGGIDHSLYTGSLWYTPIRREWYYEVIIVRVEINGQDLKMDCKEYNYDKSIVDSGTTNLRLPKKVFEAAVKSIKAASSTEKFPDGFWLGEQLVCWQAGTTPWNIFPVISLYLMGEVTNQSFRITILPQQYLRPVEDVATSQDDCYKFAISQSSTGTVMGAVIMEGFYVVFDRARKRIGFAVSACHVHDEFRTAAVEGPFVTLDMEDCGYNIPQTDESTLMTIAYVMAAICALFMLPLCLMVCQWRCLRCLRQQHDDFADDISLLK

Regarding `Cc1cc(C#N)cnc1C(=O)Nc1ccc(F)c([C@]2(C)Cn3cncc3C(N)=N2)c1` [Compound 7, N-{3-[(6R)-8-amino-6-methyl-5H-imidazo[1,5-a]pyrazin-6-yl]-4-fluoro-phenyl}-5-cyano-3-methyl-pyridine-2-carboxamide], the IC50 at BACE1 (setting [3]) was 3.98 nM; in assay [1], 6.17 nM; in assay [2], 5.5 nM; at BACE2, 8.13 nM.
As to `COc1cnc(C(=O)Nc2ccc(F)c([C@]3(C)Cn4cncc4C(N)=N3)c2)cn1` [Compound 1, N-{3-[(6R)-8-Amino-6-methyl-5,6-dihydroimidazo[1,5-a]pyrazin-6-yl]-4-fluorophenyl}-5-methoxypyrazine-2-carboxamide], the IC50 is 4.9 nM at BACE1 (setting [3]), 3.31 nM in assay [1], 2.75 nM in assay [2] and 55 nM at BACE2.
On to `CC(=O)NCc1ncc2n1C[C@@](C)(c1cc(NC(=O)c3ccc(C#N)cn3)ccc1F)N=C2N` [Compound 17, N-(3-{(6R)-3-[(Acetylamino)methyl]-8-amino-6-methyl-5,6-dihydroimidazo[1,5-a]pyrazin-6-yl}-4-fluorophenyl)-5-cyanopyridine-2-carboxamide], for which the IC50 on BACE1 (setting [3]) was 1.86 nM; in assay [1], 4.79 nM; in assay [2], 5.25 nM.
For the compound `COc1cnc(C(=O)Nc2ccc(F)c(C3(CF)Cn4cncc4C(N)=N3)c2)cn1` (racemic) [Compound 13, (rac)-N-{3-[8-Amino-6-(fluoromethyl)-5,6-dihydroimidazo[1,5-a]pyrazin-6-yl]-4-fluorophenyl}-5-methoxypyrazine-2-carboxamide], the IC50 at BACE1 (setting [3]) was 8.32 nM; in assay [1], 3.63 nM; in assay [2], 3.63 nM; at BACE2, 93.3 nM.
As to `C[C@@]1(c2cc(NC(=O)c3ccc(C#N)cn3)ccc2F)Cn2c(cnc2CC2CC2)C(N)=N1` [Compound 16, N-{3-[(6R)-8-Amino-3-(cyclopropylmethyl)-6-methyl-5,6-dihydroimidazo[1,5-a]pyrazin-6-yl]-4-fluorophenyl}-5-cyanopyridine-2-carboxamide], the IC50 was 1.38 nM on BACE1 (setting [3]), 1.91 nM in assay [1], 2.14 nM in assay [2] and 9.55 nM at BACE2.
For the compound `C[C@@]1(c2cc(NC(=O)c3ccc(C#N)cn3)ccc2F)Cn2c(cnc2C(F)F)C(N)=N1` [Compound 10, N-{3-[(6R)-8-amino-3-(difluoromethyl)-6-methyl-5,6-dihydroimidazo[1,5-a]pyrazin-6-yl]-4-fluorophenyl}-5-cyanopyridine-2-carboxamide], the IC50 on BACE1 (setting [4]) is 3.47 nM; on BACE1 (setting [3]), 3.47 nM; in assay [1], 0.955 nM; in assay [2], 1.07 nM; at BACE2, 15.8 nM.
Consider `C[C@@]1(c2cc(NC(=O)c3ccc(C#N)cn3)ccc2F)Cn2c(cnc2C#N)C(N)=N1` [Compound 9, N-{3-[(6R)-8-Amino-3-cyano-6-methyl-5,6-dihydroimidazo[1,5-a]pyrazin-6-yl]-4-fluorophenyl}-5-cyanopyridine-2-carboxamide], for which the IC50 on BACE1 (setting [3]) is 1.45 nM; in assay [1], 2 nM; in assay [2], 2.24 nM; on BACE2, 2.14 nM.
Take `C[C@@]1(c2cc(NC(=O)c3ccc(F)cn3)ccc2F)Cn2cncc2C(N)=N1` [Compound 8, N-{3-[(6R)-8-amino-6-methyl-5,6-dihydroimidazo[1,5-a]pyrazin-6-yl]-4-fluorophenyl}-5-fluoropyridine-2-carboxamide]: the IC50 on BACE1 (setting [3]) was 22.4 nM; in assay [1], 19.1 nM; in assay [2], 17.4 nM; at BACE2, 12.6 nM.
In the case of `Cc1ncn2c1C(N)=N[C@](C)(c1cc(-c3cncnc3)ccc1F)C2` [Compound 6, (6R)-6-(2-Fluoro-5-pyrimidin-5-ylphenyl)-1,6-dimethyl-5,6-dihydroimidazo[1,5-a]pyrazin-8-amine], the IC50 (at BACE1 (setting [3]); in assay [1]; in assay [2]) was over 10000 nM each time.
Take `C[C@@]1(c2cc(NC(=O)c3ccc(Cl)cn3)ccc2F)Cn2c(cnc2C(F)F)C(N)=N1` [Compound 11, N-{3-[(6R)-8-amino-3-(difluoromethyl)-6-methyl-5,6-dihydroimidazo[1,5-a]pyrazin-6-yl]-4-fluoropheny}-5-chloropyridine-2-carboxamide]: the IC50 is 3.16 nM on BACE1 (setting [4]); 3.16 nM on BACE1 (setting [3]); 0.575 nM in assay [1]; 0.631 nM in assay [2]; 2.75 nM on BACE2.
On to `COc1cnc(C(=O)Nc2ccc(F)c([C@]3(C)Cn4c(cnc4C(F)F)C(N)=N3)c2)cn1` [Compound 12, N-{3-[(6R)-8-amino-3-(difluoromethyl)-6-methyl-5,6-dihydroimidazo[1,5-a]pyrazin-6-yl]-4-fluoropheny}-5-methoxypyrazine-2-carboxamide], for which the IC50 was 3.8 nM at BACE1 (setting [4]); 3.8 nM at BACE1 (setting [3]); 0.813 nM in assay [1]; 0.851 nM in assay [2]; 24 nM at BACE2.
In the case of `C[C@@]1(c2cc(-c3cncnc3)ccc2F)Cn2cncc2C(N)=N1` [Compound 2, (6R)-6-(2-Fluoro-5-pyrimidin-5-ylphenyl)-6-methyl-5,6-dihydroimidazo[1,5-a]pyrazin-8-amine], the IC50 on BACE1 (setting [3]) is 708 nM; in assay [1], 245 nM; in assay [2], 229 nM; on BACE2, 7240 nM.
On to `COc1cnc(C(=O)Nc2ccc(F)c(C3(CF)Cn4cncc4C(N)=N3)c2)cn1` (single isomer, unassigned) [Compound 15, N-{3-[8-amino-6-(fluoromethyl)-5,6-dihydroimidazo[1,5-a]pyrazin-6-yl]-4-fluorophenyl}-5-methoxypyrazine-2-carboxamide (S or R)], for which the results for the IC50 on BACE1 (setting [3]) and on BACE2 were 2.24 nM and 37.2 nM, respectively. The “Cellular αLisa assay in SKNBE2 cells Abeta 42 pIC50” value in assay [1] worked out at 8.74. For the same compound, the “Cellular αLisa assay in SKNBE2 cells Abetatotal pIC50” value in assay [2] was 8.74.
Turning to `C[C@@]1(c2cc(NC(=O)c3ccc(Cl)cn3)ccc2F)Cn2cncc2C(N)=N1` [Compound 3, N-{3-[(6R)-8-amino-6-methyl-5,6-dihydroimidazo[1,5-a]pyrazin-6-yl]-4-fluorophenyl}-5-chloropyridine-2-carboxamide], the IC50 was 3.16 nM on BACE1 (setting [4]); 3.16 nM on BACE1 (setting [3]); 2.95 nM in assay [1]; 2.34 nM in assay [2]; 4.07 nM on BACE2.
For the compound `COc1cnc(C(=O)Nc2ccc(F)c(C3(CF)Cn4cncc4C(N)=N3)c2)cn1` (single isomer, unassigned) [Compound 14, N-{3-[8-amino-6-(fluoromethyl)-5,6-dihydroimidazo[1,5-a]pyrazin-6-yl]-4-fluorophenyl}-5-methoxypyrazine-2-carboxamide (R or S)], the IC50 at BACE1 (setting [3]) is 933 nM; at BACE2, 5370 nM. Also, the “Cellular αLisa assay in SKNBE2 cells Abeta 42 pIC50” value in assay [1] came out at 6.07. In addition, the “Cellular αLisa assay in SKNBE2 cells Abetatotal pIC50” value in assay [2] is 6.06.
In the case of `C[C@@]1(c2cc(NC(=O)c3ccc(C#N)cn3)ccc2F)Cn2c(C(F)F)cnc2C(N)=N1` [75 (WO2012/085038), reference compound], the IC50 at BACE1 (setting [4]) is 13.8 nM.
Same read-out and setting: the result for `COc1cnc(C(=O)Nc2ccc(F)c([C@]3(C)Cn4c(C(F)F)cnc4C(N)=N3)c2)cn1` [76 (WO2012/085038), reference compound] reads 83.2 nM.
Still for that read-out and setting: the result for `C[C@@]1(c2cc(NC(=O)c3ccc(Cl)cn3)ccc2F)Cn2c(C(F)F)cnc2C(N)=N1` [74 (WO2012/085038), reference compound] reads 18.6 nM.
